Source: ChEMBL document CHEMBL5465560, “Selectivity Literature for EUbOPEN Chemogenomic Library” (2024)

Legend:
[1] = molecular target: Vascular endothelial growth factor receptor 1 (Homo sapiens) (UniProt P17948); assay: Selectivity interaction (Kinase panel (DSF assay)) EUB0001558a FLT1
[2] = molecular target: T1, Serine/threonine-protein kinase 4 (Homo sapiens) (UniProt Q13043); assay: Selectivity interaction (KinomeScan (DiscoverX)) EUB0000229b STK4; conditions: at 10 µM
T1 sequence (whole entry): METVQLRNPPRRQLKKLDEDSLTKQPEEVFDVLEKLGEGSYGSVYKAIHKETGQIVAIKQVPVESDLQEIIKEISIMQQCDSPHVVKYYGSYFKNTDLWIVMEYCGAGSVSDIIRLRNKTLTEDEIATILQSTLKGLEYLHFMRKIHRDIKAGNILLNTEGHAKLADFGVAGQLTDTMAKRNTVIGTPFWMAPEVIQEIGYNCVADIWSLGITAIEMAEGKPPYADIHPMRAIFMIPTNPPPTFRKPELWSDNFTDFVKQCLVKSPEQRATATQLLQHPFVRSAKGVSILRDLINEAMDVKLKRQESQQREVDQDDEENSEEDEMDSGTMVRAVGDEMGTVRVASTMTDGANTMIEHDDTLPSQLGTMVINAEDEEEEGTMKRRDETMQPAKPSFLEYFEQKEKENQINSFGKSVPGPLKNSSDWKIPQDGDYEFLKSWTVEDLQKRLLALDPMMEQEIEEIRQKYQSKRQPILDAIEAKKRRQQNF

[3] = molecular target: T2, Myosin light chain kinase family member 4 (Homo sapiens) (UniProt Q86YV6); assay: Selectivity interaction (KinomeScan (DiscoverX)) EUB0000229b MYLK4; conditions: at 10 µM
T2 sequence (whole entry): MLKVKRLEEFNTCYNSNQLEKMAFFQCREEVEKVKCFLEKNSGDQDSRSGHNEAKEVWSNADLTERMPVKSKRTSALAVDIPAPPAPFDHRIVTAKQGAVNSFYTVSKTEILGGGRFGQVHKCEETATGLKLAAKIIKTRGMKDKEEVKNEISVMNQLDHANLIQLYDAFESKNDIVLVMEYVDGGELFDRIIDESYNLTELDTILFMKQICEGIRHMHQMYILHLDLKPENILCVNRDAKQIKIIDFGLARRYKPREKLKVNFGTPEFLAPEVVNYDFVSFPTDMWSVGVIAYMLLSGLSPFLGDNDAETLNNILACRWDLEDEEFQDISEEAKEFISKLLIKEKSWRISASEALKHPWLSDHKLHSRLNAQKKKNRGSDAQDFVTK

[4] = molecular target: Homeodomain-interacting protein kinase 2 (Homo sapiens, UniProt Q9H2X6); assay: Selectivity interaction (Upstate Kinase Profiler service (Millipore)) EUB0000056c HIPK2; conditions: at 1 µM
[5] = molecular target: Serine/threonine-protein kinase 32A (Homo sapiens) (UniProt Q8WU08); assay: Selectivity interaction (KinomeScan (DiscoverX)) EUB0001079a STK32A; conditions: at 1 µM
[6] = molecular target: Casein kinase I isoform gamma-1 (Homo sapiens) (UniProt Q9HCP0); assay: Selectivity interaction (KinomeScan (DiscoverX)) EUB0001079a CSNK1G1; conditions: at 1 µM
[7] = molecular target: Calcium/calmodulin-dependent protein kinase type 1D (Homo sapiens) (UniProt Q8IU85); assay: Selectivity interaction (KinomeScan (DiscoverX)) EUB0001079a CAMK1D; conditions: at 1 µM
[8] = molecular target: T3, Histone-lysine N-methyltransferase SUV39H1 (Homo sapiens) (UniProt O43463); assay: Selectivity interaction (Transferase panel (protein, RNA, and DNA methyltransferases. and EP300 (acetyltransferase))) EUB0000270b SUV39H1
T3 sequence (whole entry): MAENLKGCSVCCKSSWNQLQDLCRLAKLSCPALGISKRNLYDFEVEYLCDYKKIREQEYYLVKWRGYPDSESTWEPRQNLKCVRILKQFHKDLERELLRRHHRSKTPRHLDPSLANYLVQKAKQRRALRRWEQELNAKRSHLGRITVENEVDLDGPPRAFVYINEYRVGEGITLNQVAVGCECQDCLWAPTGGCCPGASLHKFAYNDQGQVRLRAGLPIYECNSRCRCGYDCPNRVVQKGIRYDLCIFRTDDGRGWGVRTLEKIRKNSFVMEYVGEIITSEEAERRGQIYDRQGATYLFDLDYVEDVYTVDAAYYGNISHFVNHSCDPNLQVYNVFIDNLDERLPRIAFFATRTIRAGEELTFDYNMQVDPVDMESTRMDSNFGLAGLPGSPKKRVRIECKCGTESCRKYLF

[9] = molecular target: Cyclin-dependent kinase 14 (Homo sapiens) (UniProt O94921); assay: Selectivity interaction (ActivX KiNativ screen (kinase selectivity in THP-1 cell lysates)) EUB0000639a CDK14; type: subcellular; conditions: lysate, at 0.04 µM
[10] = molecular target: Calcium/calmodulin-dependent protein kinase type II subunit alpha (Homo sapiens, UniProt Q9UQM7); assay: Selectivity interaction (ActivX KiNativ screen (kinase selectivity in THP-1 cell lysates)) EUB0000639a CAMK2A; type: subcellular; conditions: lysate
[11] = molecular target: T4, Mitogen-activated protein kinase kinase kinase 7 (Homo sapiens) (UniProt O43318); assay: Selectivity interaction (Kinase panel (Invitrogen)) EUB0000639a MAP3K7; conditions: at 200 nM
T4 sequence (whole entry): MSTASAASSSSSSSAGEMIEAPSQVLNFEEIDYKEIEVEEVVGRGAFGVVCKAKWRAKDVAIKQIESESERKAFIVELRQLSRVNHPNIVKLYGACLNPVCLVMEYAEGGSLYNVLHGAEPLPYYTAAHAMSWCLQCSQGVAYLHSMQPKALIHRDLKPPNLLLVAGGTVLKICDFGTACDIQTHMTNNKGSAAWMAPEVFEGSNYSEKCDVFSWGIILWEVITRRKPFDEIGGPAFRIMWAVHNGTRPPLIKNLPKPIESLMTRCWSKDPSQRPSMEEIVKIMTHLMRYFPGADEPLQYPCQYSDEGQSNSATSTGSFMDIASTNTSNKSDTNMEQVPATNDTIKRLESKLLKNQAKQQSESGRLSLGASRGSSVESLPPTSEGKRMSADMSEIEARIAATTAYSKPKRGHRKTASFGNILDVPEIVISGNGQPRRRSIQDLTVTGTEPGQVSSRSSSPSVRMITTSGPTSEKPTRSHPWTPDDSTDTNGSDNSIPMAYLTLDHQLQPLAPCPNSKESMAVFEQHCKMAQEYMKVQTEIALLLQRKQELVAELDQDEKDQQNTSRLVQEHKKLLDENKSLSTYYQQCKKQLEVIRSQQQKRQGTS

[12] = molecular target: Serine/threonine-protein kinase Nek4 (Homo sapiens) (UniProt P51957); assay: Selectivity interaction (Kinase panel (Invitrogen)) EUB0000639a NEK4; conditions: at 200 nM
[13] = molecular target: Dual specificity tyrosine-phosphorylation-regulated kinase 1A (Homo sapiens, UniProt Q13627); assay: Selectivity interaction (Enzymatic assay (Eurofins)) EUB0001049a DYRK1A
[14] = molecular target: Fibroblast growth factor receptor 1 (Homo sapiens, UniProt P11362); assay: Selectivity interaction (Kinase screening (Nanosyn)) EUB0000604a FGFR1
Fibroblast growth factor receptor 1, sequence (P11362 22-822 limits assumed): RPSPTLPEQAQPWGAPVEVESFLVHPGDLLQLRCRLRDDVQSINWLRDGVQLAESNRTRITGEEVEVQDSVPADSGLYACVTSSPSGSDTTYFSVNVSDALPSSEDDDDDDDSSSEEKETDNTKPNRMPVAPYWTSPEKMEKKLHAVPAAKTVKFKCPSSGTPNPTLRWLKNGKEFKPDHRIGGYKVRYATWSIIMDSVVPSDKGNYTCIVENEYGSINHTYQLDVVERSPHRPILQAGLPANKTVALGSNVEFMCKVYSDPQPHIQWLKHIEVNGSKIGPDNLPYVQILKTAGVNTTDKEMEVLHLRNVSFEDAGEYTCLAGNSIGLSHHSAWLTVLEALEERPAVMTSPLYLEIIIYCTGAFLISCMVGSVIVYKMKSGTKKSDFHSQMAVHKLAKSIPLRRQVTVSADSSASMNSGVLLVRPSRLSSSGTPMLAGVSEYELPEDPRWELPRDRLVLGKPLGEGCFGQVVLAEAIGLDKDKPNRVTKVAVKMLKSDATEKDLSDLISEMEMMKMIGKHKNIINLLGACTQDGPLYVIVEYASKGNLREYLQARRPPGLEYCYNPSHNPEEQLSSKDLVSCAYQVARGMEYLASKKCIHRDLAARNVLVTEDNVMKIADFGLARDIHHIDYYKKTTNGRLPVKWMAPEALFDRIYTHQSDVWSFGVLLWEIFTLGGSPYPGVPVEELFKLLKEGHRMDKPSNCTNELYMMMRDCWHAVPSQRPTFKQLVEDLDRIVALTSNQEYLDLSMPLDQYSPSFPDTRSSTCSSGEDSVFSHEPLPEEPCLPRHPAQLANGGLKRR

Calcium/calmodulin-dependent protein kinase type II subunit alpha, sequence (Q9UQM7 whole entry): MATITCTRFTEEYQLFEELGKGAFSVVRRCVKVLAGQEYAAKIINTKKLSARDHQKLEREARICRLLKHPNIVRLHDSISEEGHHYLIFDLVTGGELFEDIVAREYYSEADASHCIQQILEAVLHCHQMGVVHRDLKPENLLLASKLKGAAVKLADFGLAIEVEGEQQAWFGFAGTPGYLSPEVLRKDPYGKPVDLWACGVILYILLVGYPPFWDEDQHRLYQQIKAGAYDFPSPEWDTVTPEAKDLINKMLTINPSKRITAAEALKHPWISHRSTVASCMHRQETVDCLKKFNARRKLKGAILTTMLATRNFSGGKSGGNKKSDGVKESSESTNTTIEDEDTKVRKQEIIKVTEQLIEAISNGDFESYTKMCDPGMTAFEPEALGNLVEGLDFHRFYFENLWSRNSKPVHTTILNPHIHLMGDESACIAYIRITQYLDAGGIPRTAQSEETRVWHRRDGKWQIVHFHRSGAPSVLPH
Cyclin-dependent kinase 14 (Homo sapiens), sequence (O94921 whole entry): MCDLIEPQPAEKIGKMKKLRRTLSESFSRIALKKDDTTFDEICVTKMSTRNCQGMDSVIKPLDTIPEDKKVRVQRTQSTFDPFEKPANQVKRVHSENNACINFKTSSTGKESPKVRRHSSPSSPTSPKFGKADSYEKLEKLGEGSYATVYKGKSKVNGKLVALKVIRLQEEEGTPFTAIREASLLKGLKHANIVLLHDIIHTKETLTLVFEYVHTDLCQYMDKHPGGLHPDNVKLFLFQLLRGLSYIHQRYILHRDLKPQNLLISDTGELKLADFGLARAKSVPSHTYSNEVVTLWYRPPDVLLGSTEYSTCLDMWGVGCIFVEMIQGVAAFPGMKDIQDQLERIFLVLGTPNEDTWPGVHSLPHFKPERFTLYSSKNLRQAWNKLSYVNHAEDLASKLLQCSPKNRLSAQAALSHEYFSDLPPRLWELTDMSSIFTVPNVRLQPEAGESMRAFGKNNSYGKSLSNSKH
Serine/threonine-protein kinase 32A (Homo sapiens), sequence (Q8WU08 whole entry, canonical isoform): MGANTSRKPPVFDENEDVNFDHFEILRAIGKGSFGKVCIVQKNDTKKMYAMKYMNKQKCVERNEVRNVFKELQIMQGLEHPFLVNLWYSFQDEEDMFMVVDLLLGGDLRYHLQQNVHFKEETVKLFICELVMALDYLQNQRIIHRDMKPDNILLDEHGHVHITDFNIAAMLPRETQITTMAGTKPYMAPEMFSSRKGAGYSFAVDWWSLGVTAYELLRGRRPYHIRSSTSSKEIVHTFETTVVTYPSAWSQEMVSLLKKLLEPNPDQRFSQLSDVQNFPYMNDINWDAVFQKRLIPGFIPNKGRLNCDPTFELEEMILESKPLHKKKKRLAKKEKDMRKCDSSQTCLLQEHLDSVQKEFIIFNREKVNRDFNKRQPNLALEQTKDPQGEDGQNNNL
Vascular endothelial growth factor receptor 1 (Homo sapiens), sequence (P17948 whole entry): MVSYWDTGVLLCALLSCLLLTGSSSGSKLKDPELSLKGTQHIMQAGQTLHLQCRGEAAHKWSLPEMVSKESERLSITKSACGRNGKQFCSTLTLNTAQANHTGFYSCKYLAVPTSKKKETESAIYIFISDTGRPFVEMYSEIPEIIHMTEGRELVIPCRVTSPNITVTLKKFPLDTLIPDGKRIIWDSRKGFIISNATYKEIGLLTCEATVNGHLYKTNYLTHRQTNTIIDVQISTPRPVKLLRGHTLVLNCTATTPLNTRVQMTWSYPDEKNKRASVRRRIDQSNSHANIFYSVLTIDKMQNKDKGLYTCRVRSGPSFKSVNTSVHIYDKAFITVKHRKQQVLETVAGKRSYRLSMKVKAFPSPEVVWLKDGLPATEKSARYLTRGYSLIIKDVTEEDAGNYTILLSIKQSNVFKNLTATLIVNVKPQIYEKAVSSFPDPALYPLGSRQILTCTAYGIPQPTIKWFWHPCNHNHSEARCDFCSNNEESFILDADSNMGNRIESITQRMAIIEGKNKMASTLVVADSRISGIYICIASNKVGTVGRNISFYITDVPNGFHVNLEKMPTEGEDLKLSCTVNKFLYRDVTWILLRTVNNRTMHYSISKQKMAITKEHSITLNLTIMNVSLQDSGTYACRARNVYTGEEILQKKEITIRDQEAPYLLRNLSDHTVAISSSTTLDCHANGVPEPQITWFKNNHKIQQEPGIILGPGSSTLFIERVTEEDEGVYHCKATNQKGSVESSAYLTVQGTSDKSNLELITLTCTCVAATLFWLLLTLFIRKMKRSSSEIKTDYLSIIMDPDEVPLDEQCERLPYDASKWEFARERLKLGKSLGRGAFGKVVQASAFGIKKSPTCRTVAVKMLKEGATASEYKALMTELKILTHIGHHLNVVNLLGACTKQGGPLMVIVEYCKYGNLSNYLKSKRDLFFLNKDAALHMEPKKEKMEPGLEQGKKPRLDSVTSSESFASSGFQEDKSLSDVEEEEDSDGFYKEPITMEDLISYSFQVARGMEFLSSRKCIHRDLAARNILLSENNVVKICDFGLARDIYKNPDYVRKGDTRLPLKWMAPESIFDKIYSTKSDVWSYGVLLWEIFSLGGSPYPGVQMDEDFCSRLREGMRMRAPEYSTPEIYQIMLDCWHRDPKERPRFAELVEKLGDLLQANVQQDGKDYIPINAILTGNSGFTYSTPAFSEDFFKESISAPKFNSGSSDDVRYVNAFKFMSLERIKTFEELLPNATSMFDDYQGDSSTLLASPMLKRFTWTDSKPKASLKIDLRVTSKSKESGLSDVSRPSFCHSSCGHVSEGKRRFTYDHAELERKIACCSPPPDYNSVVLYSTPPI
Homeodomain-interacting protein kinase 2, sequence (Q9H2X6 whole entry, looked up): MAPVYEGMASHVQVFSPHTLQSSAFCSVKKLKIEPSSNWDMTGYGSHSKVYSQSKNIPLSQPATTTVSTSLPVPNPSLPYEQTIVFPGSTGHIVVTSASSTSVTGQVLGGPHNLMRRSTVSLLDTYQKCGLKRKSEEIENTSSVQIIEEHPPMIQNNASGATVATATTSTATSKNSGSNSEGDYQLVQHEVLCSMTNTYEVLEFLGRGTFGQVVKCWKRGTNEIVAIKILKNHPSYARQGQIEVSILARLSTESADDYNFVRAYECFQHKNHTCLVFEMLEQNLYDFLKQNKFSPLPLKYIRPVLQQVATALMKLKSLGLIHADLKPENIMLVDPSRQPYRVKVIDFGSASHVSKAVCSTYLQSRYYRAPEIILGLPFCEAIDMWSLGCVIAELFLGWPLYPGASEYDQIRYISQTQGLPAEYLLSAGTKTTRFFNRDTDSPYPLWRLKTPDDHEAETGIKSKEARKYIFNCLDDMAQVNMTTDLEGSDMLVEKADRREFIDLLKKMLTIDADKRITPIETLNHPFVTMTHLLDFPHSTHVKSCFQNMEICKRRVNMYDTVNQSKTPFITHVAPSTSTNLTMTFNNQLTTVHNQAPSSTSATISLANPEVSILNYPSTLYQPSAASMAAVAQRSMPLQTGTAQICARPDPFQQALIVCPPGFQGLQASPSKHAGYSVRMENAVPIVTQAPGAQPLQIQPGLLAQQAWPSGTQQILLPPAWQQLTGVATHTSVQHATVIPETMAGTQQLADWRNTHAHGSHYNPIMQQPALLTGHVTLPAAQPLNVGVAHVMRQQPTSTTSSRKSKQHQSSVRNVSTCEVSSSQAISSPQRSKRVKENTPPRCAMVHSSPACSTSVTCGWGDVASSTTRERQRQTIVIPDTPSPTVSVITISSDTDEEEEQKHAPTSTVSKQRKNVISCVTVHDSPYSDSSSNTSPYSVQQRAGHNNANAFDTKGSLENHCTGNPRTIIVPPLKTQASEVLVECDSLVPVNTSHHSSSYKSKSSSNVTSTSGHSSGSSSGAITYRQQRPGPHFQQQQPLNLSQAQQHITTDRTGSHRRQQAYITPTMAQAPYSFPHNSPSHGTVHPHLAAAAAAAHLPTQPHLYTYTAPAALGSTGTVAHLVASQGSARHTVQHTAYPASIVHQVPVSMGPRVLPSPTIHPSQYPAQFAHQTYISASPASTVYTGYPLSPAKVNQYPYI
Calcium/calmodulin-dependent protein kinase type 1D (Homo sapiens), sequence (Q8IU85 whole entry, looked up): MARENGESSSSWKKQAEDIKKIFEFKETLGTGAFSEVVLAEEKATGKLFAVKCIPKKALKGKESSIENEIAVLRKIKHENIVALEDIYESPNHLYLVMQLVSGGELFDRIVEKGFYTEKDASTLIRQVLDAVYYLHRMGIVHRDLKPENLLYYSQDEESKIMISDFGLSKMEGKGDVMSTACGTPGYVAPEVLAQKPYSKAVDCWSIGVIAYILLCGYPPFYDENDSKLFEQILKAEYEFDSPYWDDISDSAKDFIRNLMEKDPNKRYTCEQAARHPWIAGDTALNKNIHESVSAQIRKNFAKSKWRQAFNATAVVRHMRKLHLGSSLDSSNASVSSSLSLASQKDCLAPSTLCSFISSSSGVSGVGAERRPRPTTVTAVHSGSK

CC(C)(O)[C@H](F)CN1Cc2cc(NC(=O)c3cnn4cccnc34)c(N3CCOCC3)cc2C1=O
dTM [1]: 3.3 K

COc1cc(N(C)c2ccnc3ccc(C(F)(F)F)cc23)cc(OC)c1OC
% binding [2]: 99%
% binding [3]: 98%

Cc1ccc(-c2ccc3c(ccc4sc5c(c43)NC[C@@H](C)NC5=O)n2)cn1
% of inhibition [4]: 2%

Nc1cnc(N2CCc3cc(S(=O)(=O)Nc4c(F)cc(Cl)cc4F)cc(N4CCCC4=O)c32)nc1 [TP-020n]
% of control [5]: 80%
% of control [6]: 97%
% of control [7]: 97%

Cc1cc(CN)cc(C)c1-c1ncn(C)c1-c1cncn1C
% activity ([8]; at 1 µM): > 90%
% activity ([8]; at 10 µM): > 80%

CC[C@@H]1[C@H](F)C(=O)N[C@@H]1COc1nccc2cc(C(N)=O)c(OC)cc12 [ZIMLOVISERTIB]
% of inhibition [9]: 5.5%
% of inhibition ([10]; at 0.01 µM): 3.3%
% of inhibition ([10]; at 0.04 µM): 16.7%
% of inhibition ([10]; at 0.2 µM): 6.9%
% of inhibition ([10]; at 1 µM): 25.1%
% of inhibition ([10]; at 5 µM): 56.2%
% of inhibition [11]: 8.31%
% of inhibition [12]: 3.25%

COc1cc(Nc2nc(C)cc(-c3cnn4nc(OC)ccc34)n2)cc(C(F)(F)F)c1
IC50 [13]: > 10 µM

Cc1cnc(Nc2ccc(F)cc2Cl)nc1-c1c[nH]c(C(=O)N[C@H](CO)c2cccc(Cl)c2)c1
% of inhibition [14]: 3%
